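96-well plates; 48 h exposure; 5 concentrations. Endpoints by linear interpolation between flanking doses. Not reached: highest tested concentration assigned. TGI is the concentration that stops growth completely.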
How the values were obtained:
Experiment in all cases: DTP human tumour cell line panel, 48 h
A549 NSCLC = test system: A549 NSCLC
ACHN renal = test system: ACHN renal
CAKI-1 renal = test system: CAKI-1 renal
COLO 205 colon = test system: COLO 205 colon
HCT-116 colon = test system: HCT-116 colon
HL-60(TB) leukemia = test system: HL-60(TB) leukemia
K-562 leukemia = test system: K-562 leukemia
NCI-H226 lung = test system: NCI-H226 lung
NCI-H23 lung = test system: NCI-H23 lung
OVCAR-4 ovarian = test system: OVCAR-4 ovarian
OVCAR-5 ovarian = test system: OVCAR-5 ovarian
OVCAR-8 ovarian = test system: OVCAR-8 ovarian
SNB-19 CNS = test system: SNB-19 CNS
SNB-75 CNS = test system: SNB-75 CNS
SR leukemia = test system: SR leukemia
UACC-62 melanoma = test system: UACC-62 melanoma
HOP-62 NSCLC = test system: HOP-62 NSCLC
U251 CNS = test system: U251 CNS
RPMI-8226 leukemia = test system: RPMI-8226 leukemia

Compound	TGI (A549 NSCLC) [µM]	TGI (ACHN renal) [µM]	TGI (CAKI-1 renal) [µM]	TGI (COLO 205 colon) [µM]	TGI (HCT-116 colon) [µM]	TGI (HL-60(TB) leukemia) [µM]	TGI (K-562 leukemia) [µM]	TGI (NCI-H226 lung) [µM]	TGI (NCI-H23 lung) [µM]	TGI (OVCAR-4 ovarian) [µM]	TGI (OVCAR-5 ovarian) [µM]	TGI (OVCAR-8 ovarian) [µM]	TGI (SNB-19 CNS) [µM]	TGI (SNB-75 CNS) [µM]	TGI (SR leukemia) [µM]	TGI (UACC-62 melanoma) [µM]	TGI (HOP-62 NSCLC) [µM]	TGI (U251 CNS) [µM]	TGI (RPMI-8226 leukemia) [µM]
CC(C)N(C(=O)C12C3C4C1C1C2C3C41I)C(C)C (stereo not drawn)	> 100	> 100	> 100	> 100	> 100	> 100	> 100	> 100	> 100	> 100	> 100	> 100	> 100	> 100	> 100	> 100			
Cc1nc(-n2nc(-c3ccccc3)cc2-c2ccccc2)sc1C(=O)/C=C/c1ccc(Cl)c(Cl)c1	> 100	> 100	78.7	> 100	> 100	36.7	63.7	87.6	> 100	81.3	66.2	31.3	42.1		76.8	19.9	> 100	23.8	
NC(=O)C(=CNC(=S)Nc1ccc(S(=O)(=O)Nc2ccccn2)cc1)C(N)=O	> 100	> 100	> 100	> 100	> 100		> 100	> 100	> 100	> 100	> 100	> 100	> 100	> 100	> 100	> 100	> 100	> 100	> 100
N#C/C(=C\c1cc(O)ccc1O)C(N)=O	> 100	> 100	> 100	> 100	> 100	34.6	> 100	95.4	> 100	> 100	> 100	> 100	> 100	90.8		88.1	> 100	> 100	65.6
CCc1[nH]c(=O)c2oc3cc4ccccc4cc3c2c1C(=O)O	> 10	> 10			> 10	> 10		> 10		> 10	> 10	> 10	> 10	> 10	> 10				
Nc1ncnc2c1ncn2-c1ccc([N+](=O)[O-])cn1	> 100	> 100	> 100	> 100	> 100	> 100		> 100	> 100	> 100	> 100	> 100	> 100	> 100		> 100	> 100	> 100	> 100
COC(=O)n1c(C)c(C=O)c2ccc(OC)cc21	> 100	> 100	87.9	> 100	> 100	> 100	> 100		89.7	> 100	> 100	> 100	> 100	> 100	> 100	57.1	60.8		

From PubChem BioAssay (NCI)
